Assays:
S. aureus DSM 20231 [1] = test: Bliss interaction score (quartile over a dose matrix) (fitness difference); higher = more antagonism (negative = synergy)
Procedure, shortened: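 Fitness was derived from optical density at entry into stationary phase, divided by the robust mean of the no-drug wells on the same plate. That reading was taken as OD595, and the ratio was capped at 1. Single-drug fitness was inferred from the combination data. The Bliss score, observed fitness minus the expected product of single-drug fitness, was summarised as quartiles over technical, biological and donor/recipient replicates.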

S. aureus DSM 20231 [2] = test: fitness (endpoint OD595 vs no drug) (fraction); higher = more growth
Procedure, shortened: (§1)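 Fitness was defined as the optical density at the transition into stationary phase relative to the robust mean of no-drug control wells. Values were capped at 1. Cultures were started at OD595 0.01 in 384-well plates (30 µl, or 55 µl for S. pneumoniae) in TSB, LB Lennox or CY at 37 °C. OD595 was recorded every 30 min over 14 h, with the first reading subtracted as background.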

S. aureus Newman = test: as above
Procedure, shortened: as §1

S. pneumoniae D39V = test: as above
Procedure, shortened: as §1

[3] = first compound 0.0625 µg/mL, partner 0.375 µg/mL
[4] = first compound 0.0625 µg/mL, partner 0.75 µg/mL
[5] = first compound 0.0625 µg/mL, partner 1.5 µg/mL
[6] = first compound 0.125 µg/mL, partner 0.375 µg/mL
[7] = first compound 0.125 µg/mL, partner 0.75 µg/mL
[8] = first compound 0.25 µg/mL, partner 0.375 µg/mL
[9] = first compound 0.25 µg/mL, partner 0.75 µg/mL
[10] = first compound 0.25 µg/mL, partner 1.5 µg/mL
[11] = first compound 0.125 µg/mL, partner 0.0195 µg/mL
[12] = first compound 0.125 µg/mL, partner 0.039 µg/mL
[13] = first compound 0.125 µg/mL, partner 0.078 µg/mL
[14] = first compound 0.25 µg/mL, partner 0.0195 µg/mL
[15] = first compound 0.25 µg/mL, partner 0.039 µg/mL
[16] = first compound 0.25 µg/mL, partner 0.078 µg/mL
[17] = first compound 0.5 µg/mL, partner 0.0195 µg/mL
[18] = first compound 0.5 µg/mL, partner 0.039 µg/mL
[19] = first compound 0.5 µg/mL, partner 0.078 µg/mL
[20] = first compound 0.125 µg/mL, partner 0.0156 µg/mL
[21] = first compound 0.125 µg/mL, partner 0.0312 µg/mL
[22] = first compound 0.125 µg/mL, partner 0.0625 µg/mL
[23] = first compound 0.25 µg/mL, partner 0.0156 µg/mL
[24] = first compound 0.25 µg/mL, partner 0.0312 µg/mL
[25] = first compound 0.25 µg/mL, partner 0.0625 µg/mL
[26] = first compound 0.5 µg/mL, partner 0.0156 µg/mL
[27] = first compound 0.5 µg/mL, partner 0.0312 µg/mL
[28] = first compound 0.5 µg/mL, partner 0.0625 µg/mL
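For Bliss interaction score (quartile over a dose matrix) in this document: first quartile when negative (synergy) and third quartile when positive (antagonism).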

Work on `CC1(C)S[C@@H]2[C@H](NC(=O)[C@H](N)c3ccc(O)cc3)C(=O)N2[C@H]1C(=O)O` [Amoxicillin] + Cc1ccc(-c2cc(C(F)(F)F)nn2-c2ccc(S(N)(=O)=O)cc2)cc1 [Celecoxib] yielded a Bliss interaction score (S. aureus DSM 20231 [1]) of 0.185.
`CC1(C)S[C@@H]2[C@H](NC(=O)[C@H](N)c3ccc(O)cc3)C(=O)N2[C@H]1C(=O)O` [Amoxicillin] + N[C@@H]1CONC1=O [Cycloserine D] was tested, and the fitness (S. aureus DSM 20231 [2]; [3]) was 0.579, the fitness (S. aureus DSM 20231 [2]; [4]) was 0.562 and the fitness (S. aureus DSM 20231 [2]; [5]) was 0.554. The fitness (S. aureus DSM 20231 [2]; [6]) was 0.382, the fitness (S. aureus DSM 20231 [2]; [7]) was 0.368 and the fitness (S. aureus DSM 20231 [2]; [8]) was 0.0345. It also gave a fitness (S. aureus DSM 20231 [2]; [9]) of 0.0204, a fitness (S. aureus DSM 20231 [2]; [10]) of 0.0264 and a fitness (S. aureus DSM 20231 [2]; first compound 0.5 µg/mL, partner 0.375 µg/mL) of 0.0039. For the same compound, the fitness (S. aureus DSM 20231 [2]; first compound 0.5 µg/mL, partner 0.75 µg/mL) was 0.0079, the fitness (S. aureus DSM 20231 [2]; first compound 0.5 µg/mL, partner 1.5 µg/mL) was 0.0072 and the fitness (S. aureus Newman; [3]) was 0.889. It also gave a fitness (S. aureus Newman; [4]) of 0.879, a fitness (S. aureus Newman; [5]) of 0.861 and a fitness (S. aureus Newman; [6]) of 0.875. For the same compound, the fitness (S. aureus Newman; [7]) was 0.91, the fitness (S. aureus Newman; first compound 0.125 µg/mL, partner 1.5 µg/mL) was 0.851 and the fitness (S. aureus Newman; [8]) was 0.811. The fitness (S. aureus Newman; [9]) was 0.821 and the fitness (S. aureus Newman; [10]) was 0.8.
`CC1(C)S[C@@H]2[C@H](NC(=O)[C@H](N)c3ccc(O)cc3)C(=O)N2[C@H]1C(=O)O` [Amoxicillin] + O=C(O)[C@H]1/C(=C/CO)O[C@@H]2CC(=O)N21 [Clavulanic acid] gave a fitness (S. aureus Newman; first compound 0.0625 µg/mL, partner 0.03125 µg/mL, one replicate) of 0.895, a fitness (S. aureus Newman; first compound 0.0625 µg/mL, partner 0.0625 µg/mL, one replicate) of 0.816 and a fitness (S. aureus Newman; first compound 0.0625 µg/mL, partner 0.125 µg/mL, one replicate) of 0.768. For the same compound, the fitness (S. aureus Newman; first compound 0.125 µg/mL, partner 0.03125 µg/mL, one replicate) was 0.831, the fitness (S. aureus Newman; first compound 0.125 µg/mL, partner 0.0625 µg/mL, one replicate) was 0.809 and the fitness (S. aureus Newman; first compound 0.125 µg/mL, partner 0.125 µg/mL, one replicate) was 0.639. It also gave a fitness (S. aureus Newman; first compound 0.25 µg/mL, partner 0.03125 µg/mL, one replicate) of 0.717, a fitness (S. aureus Newman; first compound 0.25 µg/mL, partner 0.0625 µg/mL, one replicate) of 0.628 and a fitness (S. aureus Newman; first compound 0.25 µg/mL, partner 0.125 µg/mL, one replicate) of 0.606. The fitness (S. pneumoniae D39V; first compound 0.0008 µg/mL, partner 0.5 µg/mL) was 0.913, the fitness (S. pneumoniae D39V; first compound 0.0008 µg/mL, partner 1 µg/mL) was 0.886 and the fitness (S. pneumoniae D39V; first compound 0.0008 µg/mL, partner 2 µg/mL) was 0.812. The fitness (S. pneumoniae D39V; first compound 0.0015 µg/mL, partner 0.5 µg/mL) was 0.945, the fitness (S. pneumoniae D39V; first compound 0.0015 µg/mL, partner 1 µg/mL) was 0.87 and the fitness (S. pneumoniae D39V; first compound 0.0015 µg/mL, partner 2 µg/mL) was 0.819. The fitness (S. pneumoniae D39V; first compound 0.003 µg/mL, partner 0.5 µg/mL) was 0.914, the fitness (S. pneumoniae D39V; first compound 0.003 µg/mL, partner 1 µg/mL) was 0.852 and the fitness (S. pneumoniae D39V; first compound 0.003 µg/mL, partner 2 µg/mL) was 0.713. The fitness (S. pneumoniae D39V; first compound 0.006 µg/mL, partner 0.5 µg/mL, one replicate) was 0.391, the fitness (S. pneumoniae D39V; first compound 0.006 µg/mL, partner 1 µg/mL, one replicate) was 0.315 and the fitness (S. pneumoniae D39V; first compound 0.006 µg/mL, partner 2 µg/mL, one replicate) was 0.242.
Work on `CC1(C)S[C@@H]2[C@H](NC(=O)[C@H](N)c3ccc(O)cc3)C(=O)N2[C@H]1C(=O)O` [Amoxicillin] + O=C(O)c1cc(-c2ccc(F)cc2F)ccc1O [Diflunisal] yielded a Bliss interaction score (S. aureus DSM 20231 [1]) of 0.204.
In the case of `CO/N=C(\C(=O)N[C@@H]1C(=O)N2C(C(=O)[O-])=C(C[N+]3(C)CCCC3)CS[C@H]12)c1csc(N)n1` [Cefepime] + CC1(C)S[C@@H]2[C@H](NC(=O)Cc3ccccc3)C(=O)N2[C@H]1C(=O)O [Penicillin G], the fitness (S. aureus Newman; [11]) is reported as 0.868, the fitness (S. aureus Newman; [12]) is reported as 0.895 and the fitness (S. aureus Newman; [13]) is reported as 0.871. The fitness (S. aureus Newman; [14]) was 0.801, the fitness (S. aureus Newman; [15]) was 0.811 and the fitness (S. aureus Newman; [16]) was 0.773. For the same compound, the fitness (S. aureus Newman; [17]) was 0.712, the fitness (S. aureus Newman; [18]) was 0.695 and the fitness (S. aureus Newman; [19]) was 0.704.
`CO/N=C(\C(=O)N[C@@H]1C(=O)N2C(C(=O)[O-])=C(C[N+]3(C)CCCC3)CS[C@H]12)c1csc(N)n1` [Cefepime] + CO[C@@]12[C@H](COC(N)=O)C3=C(C(=O)C(C)=C(N)C3=O)N1C[C@@H]1N[C@@H]12 [Mitomycin C] showed a fitness (S. aureus DSM 20231 [2]; [20]) of 0.685, a fitness (S. aureus DSM 20231 [2]; [21]) of 0.653 and a fitness (S. aureus DSM 20231 [2]; [22]) of 0.568. It also gave a fitness (S. aureus DSM 20231 [2]; [23]) of 0.63, a fitness (S. aureus DSM 20231 [2]; [24]) of 0.617 and a fitness (S. aureus DSM 20231 [2]; [25]) of 0.578. For the same compound, the fitness (S. aureus DSM 20231 [2]; [26]) was 0.632, the fitness (S. aureus DSM 20231 [2]; [27]) was 0.572 and the fitness (S. aureus DSM 20231 [2]; [28]) was 0.549. For the same compound, the fitness (S. aureus Newman; [20]) was 0.749, the fitness (S. aureus Newman; [21]) was 0.661 and the fitness (S. aureus Newman; [22]) was 0.556. It also gave a fitness (S. aureus Newman; [23]) of 0.661, a fitness (S. aureus Newman; [24]) of 0.592 and a fitness (S. aureus Newman; [25]) of 0.483. For the same compound, the fitness (S. aureus Newman; [26]) was 0.621, the fitness (S. aureus Newman; [27]) was 0.578 and the fitness (S. aureus Newman; [28]) was 0.522. The fitness (S. pneumoniae D39V; first compound 0.007 µg/mL, partner 0.002 µg/mL) was 0.88, the fitness (S. pneumoniae D39V; first compound 0.007 µg/mL, partner 0.004 µg/mL) was 0.803 and the fitness (S. pneumoniae D39V; first compound 0.007 µg/mL, partner 0.008 µg/mL) was 0.68. For the same compound, the fitness (S. pneumoniae D39V; first compound 0.0078 µg/mL, partner 0.001075 µg/mL) was 0.976, the fitness (S. pneumoniae D39V; first compound 0.0078 µg/mL, partner 0.00215 µg/mL) was 0.924 and the fitness (S. pneumoniae D39V; first compound 0.0078 µg/mL, partner 0.0043 µg/mL) was 0.867. The fitness (S. pneumoniae D39V; first compound 0.014 µg/mL, partner 0.002 µg/mL) was 0.859, the fitness (S. pneumoniae D39V; first compound 0.014 µg/mL, partner 0.004 µg/mL) was 0.819 and the fitness (S. pneumoniae D39V; first compound 0.014 µg/mL, partner 0.008 µg/mL) was 0.669. The fitness (S. pneumoniae D39V; first compound 0.0155 µg/mL, partner 0.001075 µg/mL) was 0.98, the fitness (S. pneumoniae D39V; first compound 0.0155 µg/mL, partner 0.00215 µg/mL) was 0.931 and the fitness (S. pneumoniae D39V; first compound 0.0155 µg/mL, partner 0.0043 µg/mL) was 0.857. It also gave a fitness (S. pneumoniae D39V; first compound 0.028 µg/mL, partner 0.002 µg/mL) of 0.716, a fitness (S. pneumoniae D39V; first compound 0.028 µg/mL, partner 0.004 µg/mL) of 0.7 and a fitness (S. pneumoniae D39V; first compound 0.028 µg/mL, partner 0.008 µg/mL) of 0.628. It also gave a fitness (S. pneumoniae D39V; first compound 0.031 µg/mL, partner 0.001075 µg/mL) of 0.708, a fitness (S. pneumoniae D39V; first compound 0.031 µg/mL, partner 0.00215 µg/mL) of 0.647 and a fitness (S. pneumoniae D39V; first compound 0.031 µg/mL, partner 0.0043 µg/mL) of 0.63.
For `CCCCCCCCCC(=O)N[C@@H](Cc1c[nH]c2ccccc12)C(=O)N[C@H](CC(N)=O)C(=O)N[C@@H](CC(=O)O)C(=O)N[C@@H]1C(=O)NCC(=O)N[C@@H](CCCN)C(=O)N[C@@H](CC(=O)O)C(=O)N[C@H](C)C(=O)N[C@@H](CC(=O)O)C(=O)NCC(=O)N[C@H](CO)C(=O)N[C@@H]([C@H](C)CC(=O)O)C(=O)N[C@@H](CC(=O)c2ccccc2N)C(=O)O[C@@H]1C` [Daptomycin] + CC1(C)S[C@@H]2[C@H](NC(=O)Cc3ccccc3)C(=O)N2[C@H]1C(=O)O [Penicillin G], the fitness (S. aureus Newman; [11]) was 0.926, the fitness (S. aureus Newman; [12]) was 0.939 and the fitness (S. aureus Newman; [13]) was 0.961. For the same compound, the fitness (S. aureus Newman; [14]) was 0.958, the fitness (S. aureus Newman; [15]) was 0.942 and the fitness (S. aureus Newman; [16]) was 0.957. For the same compound, the fitness (S. aureus Newman; [17]) was 0.925, the fitness (S. aureus Newman; [18]) was 0.972 and the fitness (S. aureus Newman; [19]) was 0.915.
